Results: patent publication EP0488169A1, “Beta-Hydroxyethylamines with a 1,1-disubstituted cyclopropyl-group, process for their preparation and use” (HOECHST AKTIENGESELLSCHAFT, priority 1990, dated 1992)

Experiments:
[1] = test system: Trichophyton Mentagrophytes; assay: Fungicidal (killing) effect on resting stages (microconidia) of Trichophyton Mentagrophytes, overnight incubation in aqua dest., survival after wash-out; format: cell-based; conditions: read-out: Fungizidie (pilzabtötende Wirkung)
Description: Die Fungizide (pilzabtötende Wirkung) der Verbindungendes Typs der Formel I wird bestimmt, indem Ruhestadien (Vermehrungsform ist gleich Mikrokonidien) des Pilzes Trichophyton Mentagrophytes in aqua dest. über Nacht inkubiert werden. Nach Auswaschen des Präparats (vgl. H. Hänel und W. Raether in mycoses 31 (3), 148-154 (1988)) wird auf Überleben der Pilze geprüft.
Einige auf diese Weise bestimmte Werte sind in Tabelle 4 wiedergegeben (Vergleichspräparat ist Rilopirox).

[2] = test system: Phospholipase aus Leberzellen; conditions: phospholipase from liver cells; Biochem. Pharmacol. 34, 521-24, 1985; cited from earlier work
Candida albicans = assay: Systemic Candida albicans infection in the mouse, survival time, combination therapy with Fluconazol; format: in vivo, Maus; conditions: for Überlebenszeit (bez. auf Fluconazol = 100 %): mice infected i.v. with C. albicans, Fluconazol 9 x p.o. 50 mg/kg/day, combination partner 14 x p.o. 50 mg/kg/day
Description: Als Beispiele für die systemische in vivo-Wirksamkeit der Verbindungen dient die systemische Candida albicans Infektion bei der Maus.
Ziel dieser Methode ist es, den Effekt von Präparaten auf eine systemische Candida albicans Infektion zu ermitteln. Die Infektion führt innerhalb von 2-4 Tagen zum Tod der Tiere.
Beschreibung der Methode: Albino Mäuse (NMRI, Männchen, 15-20 g Körpergewicht) werden intravenös mit Candida albicans Hefezellen infiziert (Stamm 200/175), die frisch auf Malzagar vorkultiviert wurden und in physiologischer Kochsalzlösung suspendiert wurden. Die Infektionsdosis, die in dem angegebenen Zeitrahmen zur Lethalität führt, wurde photometrisch eingestellt und enthielt eine Million Hefezellen pro Maus.
Die zu prüfenden Verbindungen werden entweder alleine oder in Kombination mit einem Standardantimykotikum verabreicht. Im durchgeführten Test wurde ein Kombinationspräparat verwendet, wobei als Standardantimykotikum Fluconazol (Fa. Pfizer) diente. Applikationswege sind je nach Substanzgruppe unterschiedlich, wobei der oralen Applikation der Vorzug gegeben wird. Die Mäuse werden 4 Wochen beobachtet, die Mortalität wird täglich registriert, und die Überlebenszeiten der einzelnen Gruppen werden gemittelt und untereinander verglichen. Gruppengröße beträgt durchschnittlich 10 Tiere.
Der Vergleich der Mittelwerte geschieht mit dem Students T Test.
Dosierungen: Fluconazol jeweils 9 x p.o. 50 mg/kg/Tag Kombinationspartner jeweils 14 x p.o. 50 mg/kg /Tag

Structure (SMILES) | killing at 10 µg/mL [1] [%] | killing at 20 µg/mL [1] [%] | killing at 40 µg/mL [1] [%] | killing at 80 µg/mL [1] [%] | Hemmwirkung [2] | killing at 5 µg/mL [1] [%] | Überlebenszeit (bez. auf Fluconazol = 100 %) (Candida albicans) [%] | Verlängerung der Überlebenszeit (Candida albicans; combination therapy with Fluconazol versus Fluconazol monotherapy, compound 14 x 50 mg/kg p.o. once daily) [%]
CCCCNCC(O)(c1ccc(C)cc1)C1(SCc2cccc(C(F)(F)F)c2)CC1 (stereo not shown) [Verbindung 1.48] | 99.4 | 100 | 100 | 100 |  |  |  | 
CC(C)(C)NCC(O)(c1ccc(Cl)cc1)C1(SCc2ccc(C(C)(C)C)cc2)CC1 (stereo not shown) [Verbindung 1.36] | 96.5 | 100 | 100 | 100 |  |  |  | 
CC(C)NCC(O)COc1cccc2ccccc12 (stereo not shown) [Propranolol] |  |  |  |  | wirksamste Substanz |  |  | 
Cc1cc(COc2ccc(Oc3ccc(Cl)cc3)cc2)n(O)c(=O)c1 [Rilopirox, reference compound] | 100 | 100 | 100 | 100 |  | 96.2 |  | 
CC(C)NCC(O)(c1ccc(Cl)cc1)C1(SCc2cccc(C(F)(F)F)c2)CC1 (stereo not shown) [Verbindung 1.17] | 96.9 | 100 | 100 | 100 |  |  |  | 
CCCCNCC(O)(c1ccc(Cl)cc1)C1(SCc2ccc(C(C)(C)C)cc2)CC1 (stereo not shown) [Verbindung 1.29] | 99.7 | 100 | 100 | 100 |  |  |  | 
OC(Cn1cncn1)(Cn1cncn1)c1ccc(F)cc1F [Fluconazol, reference compound] |  |  |  |  |  |  | 100 | 
CC(C)(C)NCC(O)(c1ccc(Cl)cc1)C1(SCc2ccc(Cl)cc2F)CC1 (stereo not shown) [Verbindung 1.44] | 99.1 | 100 | 100 | 100 |  |  |  | 
CCCCNCC(O)(c1ccc(Cl)cc1)C1(SCc2ccc(Cl)cc2)CC1 (stereo not shown) [Verbindung 1.4] |  |  |  |  |  |  | 157 | 57
CC(C)OCCCNCC(O)(c1ccc(Cl)cc1)C1(SCc2ccc(C(C)(C)C)cc2)CC1 (stereo not shown) [Verbindung 1.35] | 100 | 100 | 100 | 100 |  | 99.3 |  | 
